Laboratory results reported in PMC11406361, “Several orphan solute carriers functionally identified as organic cation transporters: Substrates specificity compared with known cation transporters” (The Journal of Biological Chemistry, 2024).

Assays:
SLC44A1 = SLC44A1 (Homo sapiens, UniProt Q8WWI5)
SLC35F4 = target: T1, SLC35F4 (Homo sapiens, UniProt A4IF30); assay: Uptake ratio screen, SLC35F4-overexpressing HEK293 over empty vector cells; assay type: cell-based; parameters: by amplifying the entire gene-of-interest within the HEK293 genome via a long-range PCR; details: 2.5 μM, 2 min
T1 sequence (A4IF30 1-521): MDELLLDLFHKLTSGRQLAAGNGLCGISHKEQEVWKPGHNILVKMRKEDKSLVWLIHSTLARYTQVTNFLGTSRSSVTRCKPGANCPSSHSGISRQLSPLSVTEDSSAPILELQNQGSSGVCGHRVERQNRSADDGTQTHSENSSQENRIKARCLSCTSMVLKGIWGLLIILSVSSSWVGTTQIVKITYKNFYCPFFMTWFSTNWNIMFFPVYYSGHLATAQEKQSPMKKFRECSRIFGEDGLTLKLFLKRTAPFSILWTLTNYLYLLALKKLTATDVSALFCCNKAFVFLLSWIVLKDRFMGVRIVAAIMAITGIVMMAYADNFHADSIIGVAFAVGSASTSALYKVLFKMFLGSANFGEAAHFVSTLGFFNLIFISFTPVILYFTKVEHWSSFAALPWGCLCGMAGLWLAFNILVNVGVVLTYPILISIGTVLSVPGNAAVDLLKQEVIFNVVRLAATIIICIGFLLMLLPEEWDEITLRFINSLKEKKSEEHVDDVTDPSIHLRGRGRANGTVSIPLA
Experimental: (§1) Typically discussed substrates of the proton organic-cation antiporter ([14]) are highlighted in dark green in Figure 1.
(§2) In preparation for transport experiments, 24-well plates were pre-coated with poly-D-lysine (Sigma-Aldrich) and 300,000 cells were plated per well and incubated for 48 h. Firstly, the 24-well plate was placed on a heating plate at 37 °C, and the cells were washed with 37 °C HBSS^+ buffer (Hank’s balanced salt solution supplemented with 10 mM Hepes and adjusted to pH 7.4; Thermo Fisher Scientific). The substance-of-interest, which was diluted in 37 °C HBSS^+ to a desired concentration, was added to the cells for exactly 2 min. […] The uptake was stopped with ice-cold HBSS^+, and the 24-well plate was removed from the heating plate. The cells were washed twice with the cold HBSS^+ before they were lysed for 15 min with 80% (v/v) acetonitrile containing the respective internal standard for mass spectrometry. For variations in seeded cell numbers between the cell lines, several wells were lysed in RIPA buffer and used for total protein quantification using a bicinchoninic assay ([74]) and bovine serum albumin as calibration.
The intracellular drug concentrations after transport experiments were analyzed by high-performance liquid chromatography coupled to tandem mass spectrometry analysis. The HPLC consisted of a Shimadzu Nexera HPLC System with a SIL-30AC autosampler, a LC-30AD pump, a CTO-20AC column oven, and a CBM-20A controller (Shimadzu). The reverse-phase chromatography of compounds was accomplished with a Brownlee SPP RP-Amide column with 4.6 × 100 mm inner dimensions, a particle size of 2.7 μm, and a preceding Phenomenex C-18 guard column. The mobile phase was composed of an organic additive with acetonitrile:methanol 6:1 (v/v) in total concentrations between 3% and 50% (v/v) and 0.1% (v/v) formic acid in the aqueous component of the eluent. During separation, the column oven was held at 40 °C and the mobile phase was maintained at a flow rate of 300 or 400 μl/min. After separation, the detection of substances was performed with an API 4000 tandem mass spectrometer (AB SCIEX, https://sciex.com/support/software-support/software-downloads), followed by quantification of results with the Analyst software (AB SCIEX, version 1.6.2). The composition of chromatographic conditions, as well as detailed mass spectrometric detection parameters, are listed in Table S5.
(§3) Transport-mediated net uptake was determined as fold-increase of transporter-overexpressing cells over empty vector–transfected control cells.

SLC19A2 = target: T2, SLC19A2 (Homo sapiens, UniProt O60779); assay: Uptake ratio screen, SLC19A2-overexpressing HEK293 over empty vector cells; assay type: cell-based; details: 2.5 μM, 2 min
T2 construct: expressed in transfected cells
T2 sequence (O60779 1-497): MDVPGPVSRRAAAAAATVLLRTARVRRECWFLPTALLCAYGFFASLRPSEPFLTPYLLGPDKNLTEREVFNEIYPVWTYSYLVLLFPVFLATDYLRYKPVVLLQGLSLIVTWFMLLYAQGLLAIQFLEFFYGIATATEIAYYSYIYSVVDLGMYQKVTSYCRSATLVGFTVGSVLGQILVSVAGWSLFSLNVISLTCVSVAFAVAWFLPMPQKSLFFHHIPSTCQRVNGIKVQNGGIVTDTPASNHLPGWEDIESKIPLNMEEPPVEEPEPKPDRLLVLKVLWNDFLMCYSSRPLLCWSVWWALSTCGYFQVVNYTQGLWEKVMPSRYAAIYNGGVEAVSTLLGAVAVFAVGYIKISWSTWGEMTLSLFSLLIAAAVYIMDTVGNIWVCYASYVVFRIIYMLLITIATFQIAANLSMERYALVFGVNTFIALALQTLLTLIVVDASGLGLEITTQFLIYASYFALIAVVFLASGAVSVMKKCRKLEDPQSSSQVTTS
Experimental: as §1, §2
(§4) The intracellular drug concentrations after transport experiments were analyzed by high-performance liquid chromatography coupled to tandem mass spectrometry analysis. The HPLC consisted of a Shimadzu Nexera HPLC System with a SIL-30AC autosampler, a LC-30AD pump, a CTO-20AC column oven, and a CBM-20A controller (Shimadzu). The reverse-phase chromatography of compounds was accomplished with a Brownlee SPP RP-Amide column with 4.6 × 100 mm inner dimensions, a particle size of 2.7 μm, and a preceding Phenomenex C-18 guard column. […] After separation, the detection of substances was performed with an API 4000 tandem mass spectrometer (AB SCIEX, https://sciex.com/support/software-support/software-downloads), followed by quantification of results with the Analyst software (AB SCIEX, version 1.6.2). […]
as §3

SLC5A7 = details: read-out: KM of choline transport by SLC5A7; high-affinity choline transporter; ref [46]; cited from earlier work
SLC35E4 = target: T3, SLC35E4 (Homo sapiens, UniProt Q6ICL7); assay: Uptake ratio screen, SLC35E4-overexpressing HEK293 over empty vector cells; assay type: cell-based; parameters: by amplifying the entire gene-of-interest within the HEK293 genome via a long-range PCR; details: 2.5 μM, 2 min
T3 sequence (Q6ICL7 1-350): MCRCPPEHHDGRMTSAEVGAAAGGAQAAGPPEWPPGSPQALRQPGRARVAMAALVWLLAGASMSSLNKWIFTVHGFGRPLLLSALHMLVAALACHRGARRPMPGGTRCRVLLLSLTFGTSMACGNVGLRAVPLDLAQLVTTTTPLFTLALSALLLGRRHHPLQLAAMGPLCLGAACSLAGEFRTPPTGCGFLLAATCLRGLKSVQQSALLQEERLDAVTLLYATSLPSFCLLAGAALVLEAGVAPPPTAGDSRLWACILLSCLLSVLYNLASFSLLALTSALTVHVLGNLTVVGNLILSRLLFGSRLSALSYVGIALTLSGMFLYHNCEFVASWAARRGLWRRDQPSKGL
Experimental: as §1, §2, §4, §3

SLC35E1 = SLC35E1 (Homo sapiens, UniProt Q96K37)
Chain of SLC35E1 (Q96K37 whole entry): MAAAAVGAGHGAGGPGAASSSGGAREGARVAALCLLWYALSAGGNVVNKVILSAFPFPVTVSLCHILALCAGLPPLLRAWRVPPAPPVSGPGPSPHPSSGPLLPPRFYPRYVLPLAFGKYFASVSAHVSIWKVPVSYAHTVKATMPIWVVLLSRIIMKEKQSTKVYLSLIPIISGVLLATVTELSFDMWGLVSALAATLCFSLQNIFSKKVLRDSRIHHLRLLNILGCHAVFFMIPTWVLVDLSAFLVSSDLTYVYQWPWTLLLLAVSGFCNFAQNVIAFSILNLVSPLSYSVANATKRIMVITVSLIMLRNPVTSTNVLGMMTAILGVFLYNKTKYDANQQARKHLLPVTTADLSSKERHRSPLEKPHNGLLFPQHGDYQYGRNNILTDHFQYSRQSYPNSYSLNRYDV

Chain of SLC44A1 (Q8WWI5 whole entry): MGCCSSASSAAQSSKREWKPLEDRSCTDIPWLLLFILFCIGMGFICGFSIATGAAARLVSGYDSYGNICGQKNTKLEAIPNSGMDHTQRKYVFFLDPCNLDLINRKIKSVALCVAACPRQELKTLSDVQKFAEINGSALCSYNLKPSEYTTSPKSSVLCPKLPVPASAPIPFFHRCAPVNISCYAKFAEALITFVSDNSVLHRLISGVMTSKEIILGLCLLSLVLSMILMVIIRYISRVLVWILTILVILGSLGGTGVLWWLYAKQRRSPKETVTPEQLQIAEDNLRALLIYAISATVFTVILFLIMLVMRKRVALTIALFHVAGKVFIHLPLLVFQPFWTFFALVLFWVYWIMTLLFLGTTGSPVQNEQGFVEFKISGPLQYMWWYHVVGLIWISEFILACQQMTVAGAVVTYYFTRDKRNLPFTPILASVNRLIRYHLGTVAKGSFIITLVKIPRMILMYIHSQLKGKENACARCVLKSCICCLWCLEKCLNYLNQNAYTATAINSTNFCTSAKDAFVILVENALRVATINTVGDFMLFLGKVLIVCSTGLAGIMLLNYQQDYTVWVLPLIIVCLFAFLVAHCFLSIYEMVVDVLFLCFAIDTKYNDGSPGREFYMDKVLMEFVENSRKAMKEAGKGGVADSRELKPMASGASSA

Clint (±SEM) (SLC44A1): 2.08 (±1.79) μl × mg protein^-1 × min^-1 | Uptake by SLC35F4 (in words) (SLC35F4): enhanced cell uptake | Uptake by SLC19A2 (in words) (SLC19A2): enhance cell uptake | Uptake by SLC35E4 (in words) (SLC35E4): moderate influx transport activity | Clint (±SEM) (SLC35E1): 0.95 (±0.57) μl × mg protein^-1 × min^-1
SMILES: C[N+](C)(C)CCO [Choline]
Km (SLC5A7): 2 µM
